Measured values published in patent US10577346B2, “Benzobicycloalkane derivatives, their preparation and pharmaceutical use thereof” (priority 2016, dated 2020).

Columns and labels:
CYP3A4 = biological target: T1, CYP3A4 (Homo sapiens, UniProt P08684); test: Inhibition of CYP enzyme (CYP3A4, midazolam substrate, liver microsomes); format: in vitro ADME; conditions: for inhibition at 5 min, 1 μM: human, pH 7.4, midazolam (M) as probe substrate; for CYP3A4(M) inhibition rate/1 μM: midazolam (M) as probe substrate
T1 construct: from tissue; host or cells: liver microsomes
T1 sequence (P08684 whole entry): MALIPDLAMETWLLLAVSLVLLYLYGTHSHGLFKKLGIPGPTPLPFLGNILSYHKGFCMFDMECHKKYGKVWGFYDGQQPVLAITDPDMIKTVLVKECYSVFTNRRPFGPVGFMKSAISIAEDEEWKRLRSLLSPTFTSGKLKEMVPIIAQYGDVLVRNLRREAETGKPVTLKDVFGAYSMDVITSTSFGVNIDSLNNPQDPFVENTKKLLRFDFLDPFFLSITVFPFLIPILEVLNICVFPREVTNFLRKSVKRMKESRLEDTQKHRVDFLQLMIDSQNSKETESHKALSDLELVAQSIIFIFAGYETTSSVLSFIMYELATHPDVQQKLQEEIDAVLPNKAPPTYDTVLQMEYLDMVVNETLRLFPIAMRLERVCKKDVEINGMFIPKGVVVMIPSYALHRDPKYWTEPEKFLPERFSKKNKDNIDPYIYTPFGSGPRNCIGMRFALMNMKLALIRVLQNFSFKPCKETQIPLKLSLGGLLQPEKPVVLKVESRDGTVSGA
Protocol: Assay 3: Inhibition of CYP Enzyme
1. 0.1 M potassium phosphate buffer (K-buffer), pH 7.4 was preheated;
100 mM K-Buffer: 9.5 mL Stock A and 40.5 mL Stock B were mixed, brought to a total volume of 500 mL with Milli-Q water, and titrated to pH 7.4 of KOH or H3PO4;
Stock A (1 M monobasic potassium phosphate): 136.5 g of monobasic potassium phosphate was dissolved in 1 L of Milli-Q water; and
Stock B (1 M dibasic potassium phosphate): 174.2 g of dibasic potassium phosphate was dissolved in 1 L of Milli-Q water.
2. Serial dilutions of test compounds and reference inhibitors (400×) were prepared in a 96-well plate:
2.1 8 μL of 10 mM test compounds was transferred to 12 μL of ACN. 2.2 A separate inhibitor solution was prepared for reference: 8 μL of inhibitor DMSO stock was added with 12 μL of ACN.
2.3 A 1:3 serial dilution was prepared with a DMSO:ACN mixture (v/v: 40:60).
3. 4×NADPH cofactor (66.7 mg NADPH dissolved in 10 mL 0.1 M K-buffer, pH 7.4) was prepared.
4. 4× substrate (2 mL for each isoform) was prepared as indicated in the table below (Liver microsomes must be added on ice).
5. 0.2 mg/mL liver microsome solution (990 μL of 0.1 M K-buffer was added to each 10 μL of 20 mg/mL) was prepared on ice.
6. 200 μL of 0.2 mg/mL liver microsomes was added on ice to a 96-well plate and then 1 μL of test compound or reference compound was added into corresponding wells.
7. The following solutions were added to a 96-well plate (in duplicate) on ice:
7.1 30 μL of 2× test compounds and reference compound in 0.2 mg/mL liver microsome solution were added;
7.2 15 μL of 4× substrate solution was added.
8. The 96-well assay plate and NADPH solution were pre-heated at 37° C. for 5 minutes.
9. 15 μL of pre-heated 8 mM NADPH solution was added into the assay plates to initiate the reaction.
10. The 3A4 subtype was incubated at 37° C. for 5 min for.
11. The reaction was quenched by adding 120 μL of ACN containing an internal standard.
12. After quenching, the plates were shaked in a vibrator (IKA, MTS 2/4) for 5 min (600 rpm/min) and then centrifuged at 3, 750 rpm for 15 min (Allegra X-12R centrifuge).
13. After centrifugation, 50 μL of the supernatant from each well was taken into a 96-well plate containing 70 μL of wastons water and mixed for LC/MS analysis.

hERG potassium channel = biological target: T2, hERG potassium channel (Homo sapiens, UniProt Q12809); test: Inhibition of hERG potassium ion channel, manual whole-cell patch clamp in CHO hERG cells; format: cell-based; conditions: human, CHO cells stably expressing hERG
T2 construct: host or cells: CHO cells stably expressing hERG
T2 sequence (Q12809 whole entry): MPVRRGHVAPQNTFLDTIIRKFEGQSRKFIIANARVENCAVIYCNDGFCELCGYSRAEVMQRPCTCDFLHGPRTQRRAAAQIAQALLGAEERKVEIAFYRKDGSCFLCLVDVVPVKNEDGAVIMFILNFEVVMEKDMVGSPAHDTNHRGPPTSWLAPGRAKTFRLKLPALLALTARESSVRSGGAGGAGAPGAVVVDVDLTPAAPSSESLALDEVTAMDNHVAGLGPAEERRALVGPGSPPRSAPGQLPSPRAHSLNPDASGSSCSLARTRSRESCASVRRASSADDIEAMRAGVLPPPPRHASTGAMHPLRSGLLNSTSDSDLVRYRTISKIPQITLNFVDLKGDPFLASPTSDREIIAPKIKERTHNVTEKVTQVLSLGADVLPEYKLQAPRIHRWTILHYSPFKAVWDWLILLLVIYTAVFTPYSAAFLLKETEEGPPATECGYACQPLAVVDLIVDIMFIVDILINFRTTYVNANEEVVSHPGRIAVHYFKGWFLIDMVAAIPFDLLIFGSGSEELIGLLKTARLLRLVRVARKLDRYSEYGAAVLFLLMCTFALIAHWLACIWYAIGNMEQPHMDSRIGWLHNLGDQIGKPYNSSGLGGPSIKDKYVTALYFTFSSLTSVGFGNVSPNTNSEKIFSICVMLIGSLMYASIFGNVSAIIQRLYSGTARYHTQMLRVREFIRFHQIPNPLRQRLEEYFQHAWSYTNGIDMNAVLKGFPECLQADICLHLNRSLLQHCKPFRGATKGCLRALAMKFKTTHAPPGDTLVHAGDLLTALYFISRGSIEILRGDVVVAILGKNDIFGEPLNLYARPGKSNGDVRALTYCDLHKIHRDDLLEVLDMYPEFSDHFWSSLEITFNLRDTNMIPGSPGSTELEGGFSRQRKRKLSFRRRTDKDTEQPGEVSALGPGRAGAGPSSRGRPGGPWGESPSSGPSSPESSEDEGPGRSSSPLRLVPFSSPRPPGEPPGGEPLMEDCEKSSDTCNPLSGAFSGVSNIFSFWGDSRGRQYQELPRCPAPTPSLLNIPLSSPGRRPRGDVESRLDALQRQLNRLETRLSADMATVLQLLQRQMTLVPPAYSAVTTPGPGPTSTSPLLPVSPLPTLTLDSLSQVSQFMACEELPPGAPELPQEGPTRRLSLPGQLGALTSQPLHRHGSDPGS
Protocol: (§1) Assay 2: Inhibition of hERG Potassium Ion Channel
(§2) 2.1.1 Cells used in this experiment were CHO cell lines transfected with hERG cDNA and stably expressing hERG channels (supplied by Sophion Bioscience, Denmark), with cell progeny being P15. Cells were cultured in medium containing the following ingredients Invitrogen): Ham's F12 medium, 10% (v/v) inactivated fetal bovine serum, […] hygromycin B, and […] Geneticin.
(§3) 2.1.2 CHO hERG cells were grown in Petri dishes containing the above medium and cultured in an incubator of 5% CO2 at 37° C. CHO hERG cells were transferred onto round glass plates in Petri dishes and grown on the same culture medium and culture conditions as above 24 h to 48 h prior to the electrophysiological experiments. The density of CHO hERG cells on each round glass plate must meet the requirements that the vast majority of cells are independent and separate.
(§4) 2.2 Experimental Solution
(§5) The following solutions (recommended by Sophion) were used for electrophysiological recording. The reagents used in this test were provided by Sigma.
(§6) 2.3 Electrophysiological Recording System
(§7) In this experiment, whole-cell current recording was performed using a manual patch clamp system (HEKA EPC-10 signal amplification and digital conversion system, purchased from HEKA Electronic, Germany). The round glass slide of which surface CHO hERG cells were grown on was placed in an electrophysiological recording slot under an inverted microscope. Extracellular fluid was perfused continuously in the recording slot (approximately 1 ml per minute). Conventional whole-cell patch clamp current recording technique was used in the experiment. Unless otherwise specified, the experiments were performed at normal room temperature (25° C.). Cell patch clamp at −80 mV. Cell patch clamp voltage was depolarized to +20 mV to activate hERG potassium channel, and to −50 mV after 5 sec to eliminate inactivation and generate tail currents. The tail current peak was used as a value for hERG current. When the hERG potassium current recorded in the above steps became steady under continuous perfusion of the extracellular fluid in the recording slot, the subject drug to be tested could be added to the perfusion until the inhibition of the hERG current by the drug reached a steady state. Typically, the most recent three consecutive current recording lines were generally used as a measure to determine whether the state was stable. After reaching a steady state, it was perfused with extracellular fluid for washing until the hERG current returned to the value before the drug adding. One or more drugs, or multiple concentrations of the same drug, could be tested on a single cell but it was necessary to rinse with extracellular fluid before testing a different drug. Cisapride (purchased from Sigma) was used as a positive control in the experiments to ensure normal quality of the cells used.
(§8) 2.4 Treatment and Dilution of Compounds
(§9) The compound was first dissolved in DMSO to a concentration of 10 mM and then the compound was diluted 1000-fold to a final test concentration of 10 μM using extracellular fluid.
(§10) The final concentration of DMSO in the compound test solution was 0.1%. The test concentration of cisapride as a positive control was 0.1 μM. All stock solutions and test solutions were subjected to regular 5-10 minutes of sonication and shaking to ensure complete dissolution of the compound.
(§11) The test data were analyzed by the data analysis software provided by HEKA Patchmaster (V2x73.2), Microsoft Excel and Graphpad Prism 5.0.

[1] = biological target: T3, hERG potassium ion channel (Homo sapiens, UniProt Q12809); test: as above; format: cell-based; conditions: CHO cells stably expressing hERG
T3 construct: host or cells: CHO cells stably expressing hERG
T3 sequence (Q12809 whole entry): as above
Protocol: as §1, §2, §3, §4, §5, §6, §7, §8, §9, §10, §11

[2] = cited from earlier work
in vivo = conditions: male, SD, rat, 10 mg/kg, oral administration of dezocine in rats, Dezocine dosed at 10 mpk
Protocol: LC-MS/MS method was applied for the determination of the drug concentration in plasma at different times after the example compounds were administered via gavage to rats in order to study the pharmacokinetic behavior of the compounds of the disclosure in vivo in rats and evaluate their pharmacokinetic characteristics.
Test animals: healthy adult male SD rats (weight 200-300 g, 3, fasted), provided by SLAC company;
Administration and dosage: 16 mg/kg or 24 mg/kg, 10 mL/kg, 5% 1,2-propanediol (1,2-Propanediol, Shanghai Titan Technology Co., Ltd. Lot No.: P1057349)) was administered via oral gavage to SD rats;
Blood collection: firstly, the animals which were selected to meet the test requirements prior to administration were weighed and labelled. The rats were bound before the blood collection, about 150 μl of blood from each administered rat was taken at predetermined time points via orbital vein (blood was collected before administration and at 0.083, 0.25, 0.5, 1, 2, 4, 6, and 8 h after administration respectively, 9 time points in total). Blood was transferred to a 1.5 ml tube to which K2EDTA was added previously. The collected blood sample was put on wet ice, and centrifuged (2000 g, 5 min under 4° C.) to obtain plasma sample, the whole process of which was completed within 15 minutes after blood collection. All the samples were stored at approximately −70° C. until analysis. […]

Compound	CYP3A4(M) inhibition rate/1 μM (CYP3A4)	hERG inhibition rate/10 μM [1]	other results
CN1CCN(C(=O)Oc2ccc3c(c2)[C@@]2(C)CCCCC[C@@H](C3)[C@@H]2N)CC1 [Compound Z-2]	–	–	inhibition at 5 min, 1 μM (CYP3A4): 19.8%
COCCOCCN(C)C(=O)Oc1ccc2c(c1)[C@@]1(C)CCCCC[C@@H](C2)[C@@H]1N [Compound Z-14]	–	–	inhibition at 5 min, 1 μM (CYP3A4): 49.5%
COCCCNC(=O)Oc1ccc2c(c1)[C@@]1(C)CCCCC[C@@H](C2)[C@@H]1N [Compound Z-19]	–	–	inhibition at 5 min, 1 μM (CYP3A4): 33.6%
C[C@@]12CCCCC[C@@H](Cc3ccc(OC(=O)Nc4ccc(O)cc4)cc31)[C@@H]2N [Compound Z-23]	–	–	inhibition at 5 min, 1 μM (CYP3A4): 89.2%; inhibition at 10 μM (hERG potassium channel): 71.5%
C[C@@]12CCCCC[C@@H](Cc3ccc(OC(=O)Nc4ccc(F)cc4)cc31)[C@@H]2N [Compound Z-35]	–	–	inhibition at 5 min, 1 μM (CYP3A4): 88.1%
C[C@@]12CCCCC[C@@H](Cc3ccc(OC(=O)N4CCC(N5CCCCC5)CC4)cc31)[C@@H]2N [Compound Z-49]	–	–	inhibition at 5 min, 1 μM (CYP3A4): 7.28%; inhibition at 10 μM (hERG potassium channel): 14.4%
CN(CC(=O)O)C(=O)Oc1ccc2c(c1)[C@@]1(C)CCCCC[C@@H](C2)[C@@H]1N [Compound Z-100]	–	–	inhibition at 5 min, 1 μM (CYP3A4): 1.6%
C[C@@]12CCCCC[C@@H](Cc3ccc(OC(=O)N4CCC(N5CCOCC5)CC4)cc31)[C@@H]2N [Compound Z-109]	6.6%	17.20%	–
C[C@@]12CCCCC[C@@H](Cc3ccc(OC(=O)NC4CCOCC4)cc31)[C@@H]2N [Compound Z-110]	28.0%	13.32%	–
COC1CN(C(=O)Oc2ccc3c(c2)[C@@]2(C)CCCCC[C@@H](C3)[C@@H]2N)C1 [Compound Z-111]	45.7%	–	–
CCN(CCN(C)C)C(=O)Oc1ccc2c(c1)[C@@]1(C)CCCCC[C@@H](C2)[C@@H]1N [Compound Z-113]	28.6%	16.02%	–
C[C@@]12CCCCC[C@@H](Cc3ccc(OC(=O)N4CC(O)C4)cc31)[C@@H]2N [Compound Z-114]	11.8%	17.07%	–
CC12CCCCCC(Cc3ccc(OC(=O)NC4CC(O)C4)cc31)C2N (stereo not drawn) [Compound Z-115]	18.0%	12.90%	–
C[C@@]12CCCCC[C@@H](Cc3ccc(OC(=O)N4CCS(=O)(=O)CC4)cc31)[C@@H]2N [Compound Z-116]	14.2%	11.22%	–
C[C@@]12CCCCC[C@@H](Cc3ccc(OC(=O)NC4COC4)cc31)[C@@H]2N [Compound Z-117]	23.8%	20.59%	–
C[C@@]12CCCCC[C@@H](Cc3ccc(OC(=O)NCCO)cc31)[C@@H]2N [Compound Z-118]	8.8%	–	–
COc1ccc(NC(=O)Oc2ccc3c(c2)[C@@]2(C)CCCCC[C@@H](C3)[C@@H]2N)nc1 [Compound Z-119]	–	78%	–
C[C@@]12CCCCC[C@@H](Cc3ccc(OC(=O)NC4(CO)CC4)cc31)[C@@H]2N [Compound Z-122]	17.0%	1.91%	–

Compound	CYP3A4(M) inhibition rate/1 μM (CYP3A4)	hERG inhibition rate/10 μM [1]	other results
CN(C)C1CCN(C(=O)Oc2ccc3c(c2)[C@@]2(C)CCCCC[C@@H](C3)[C@@H]2N)CC1 [Compound Z-123]	0%	8.84%	–
C[C@@]12CCCCC[C@@H](Cc3ccc(OC(=O)N4CCC(O)CC4)cc31)[C@@H]2N [Compound Z-124]	19.6%	–	–
CC(=O)N1CCN(C(=O)Oc2ccc3c(c2)[C@@]2(C)CCCCC[C@@H](C3)[C@@H]2N)CC1 [Compound Z-125]	18.1%	–	–
CC(CO)NC(=O)Oc1ccc2c(c1)C1(C)CCCCCC(C2)C1N (stereo not drawn) [Compound Z-126]	3.6%	4.92%	–
CN(CCO)C(=O)Oc1ccc2c(c1)[C@@]1(C)CCCCC[C@@H](C2)[C@@H]1N [Compound Z-127]	17.4%	9.95%	–
C[C@@]12CCCCC[C@@H](Cc3ccc(OC(=O)N4CCC(CO)CC4)cc31)[C@@H]2N [Compound Z-128]	41.9%	–	–
CC1CNCCN1C(=O)Oc1ccc2c(c1)C1(C)CCCCCC(C2)C1N (stereo not drawn) [Compound Z-129]	4.0%	–	–
C[C@@]12CCCCC[C@@H](Cc3ccc(OC(=O)N4CCC(C(=O)O)CC4)cc31)[C@@H]2N [Compound Z-130]	13.0%	3.24%	–
CCN(C(=O)Oc1ccc2c(c1)[C@@]1(C)CCCCC[C@@H](C2)[C@@H]1N)C1CCN(C)CC1 [Compound Z-131]	26.7%	39.88%	–
COC(=O)C1CCCN(C(=O)Oc2ccc3c(c2)C2(C)CCCCCC(C3)C2N)C1 (stereo not drawn) [Compound Z-135]	21.3%	–	–
CC12CCCCCC(Cc3ccc(OC(=O)N4CCCC(C(=O)O)C4)cc31)C2N (stereo not drawn) [Compound Z-136]	0%	–	–
C[C@@]12CCCCC[C@@H](Cc3ccc(OC(=O)N4CCC4)cc31)[C@@H]2N [Compound Z-137]	45.3%	–	–
C[C@@]12CCCCC[C@@H](Cc3ccc(OC(=O)NC(CO)CO)cc31)[C@@H]2N [Compound Z-138]	0%	–	–
CN1CCC(NC(=O)Oc2ccc3c(c2)[C@@]2(C)CCCCC[C@@H](C3)[C@@H]2N)CC1 [Compound Z-140]	8.7%	–	–
CN(C(=O)Oc1ccc2c(c1)[C@@]1(C)CCCCC[C@@H](C2)[C@@H]1N)C1COC1 [Compound Z-141]	30.8%	–	–
CN(C)CCNC(=O)Oc1ccc2c(c1)[C@@]1(C)CCCCC[C@@H](C2)[C@@H]1N [Compound Z-144]	22.2%	–	–
C[C@@]12CCCCC[C@@H](Cc3ccc(O)cc31)[C@@H]2N [Dezocine, dezocine]	–	–	oral bioavailability [2]: ≤ 5%; AUC (in vivo): 58.6 ng·h/mL
